These results are taken from ChEMBL document CHEMBL3046479, “Preparation and antimicrobial activity evaluation of some new bi- and triheterocyclic azoles” (2013).

What all share (type): functional
The test system of assay [1] is Bacillus cereus. As to the kind of experiment: Antimicrobial activity against Bacillus cereus 709 Roma assessed as growth inhibition after 18-24 hr by broth double microdilution method.
Assay [2] has as its system Yersinia pseudotuberculosis. As to the kind of experiment: Antimicrobial activity against Yersinia pseudotuberculosis ATCC 911 assessed as growth inhibition after 18-24 hr by broth double microdilution method.
For assay [3], the system named is Candida albicans. As to the kind of experiment: Antimicrobial activity against Candida albicans ATCC 60193 assessed as growth inhibition after 18-24 hr by broth double microdilution method.
The subject of assay [4] is Staphylococcus aureus. As to the kind of experiment: Antimicrobial activity against Staphylococcus aureus ATCC 25923 assessed as growth inhibition after 18-24 hr by broth double microdilution method.
The subject of assay [5] is Listeria monocytogenes. As to the kind of experiment: Antimicrobial activity against Listeria monocytogenes ATCC 43251 assessed as growth inhibition after 18-24 hr by broth double microdilution method.
Assay [6] has as its system Escherichia coli. As to the kind of experiment: Antimicrobial activity against Escherichia coli ATCC 35218 assessed as growth inhibition after 18-24 hr by broth double microdilution method.
Assay [7] concerns Mycolicibacterium smegmatis. As to the kind of experiment: Antimicrobial activity against Mycobacterium smegmatis ATCC 607 assessed as growth inhibition after 48-72 hr by broth double microdilution method.
Assay [8] concerns Enterococcus faecalis. As to the kind of experiment: Antimicrobial activity against Enterococcus faecalis ATCC 29212 assessed as growth inhibition after 18-24 hr by broth double microdilution method.
The test system of assay [9] is Saccharomyces cerevisiae. As to the kind of experiment: Antimicrobial activity against Saccharomyces cerevisiae RSKK 251 assessed as growth inhibition after 18-24 hr by broth double microdilution method.
Assay [10] concerns Pseudomonas aeruginosa. As to the kind of experiment: Antimicrobial activity against Pseudomonas aeruginosa ATCC 10145 assessed as growth inhibition after 18-24 hr by broth double microdilution method.

In brackets after ≈: the same amount, converted by molar mass. Activity calls are given as the source filed them. No cut-off for these calls is given here.

On to `Cc1nn(CC(=O)NN)c(=O)n1CCCn1ccnc1`, for which the MIC result in assay [1], in [3], in [4], in assay [5], in [8] and in assay [9] was “inactive” in each case. Further, the MIC entry in assay [10] is “inactive”. The MIC in [2], in [6] and in [7] was 125 µg/mL (≈ 448 µM) throughout.
`Cc1nn(CC(=O)N/N=C2\SCC(=O)N2c2ccccc2)c(=O)n1CCCn1ccnc1`: the MIC result in assay [1], in assay [2], in assay [3], in [4], in [5] and in assay [6] was “inactive” in each case. Further, the MIC entry in [8], in [9] and in [10] was “inactive” in each case. For the same molecule, the MIC in [7] was 62.5 µg/mL (≈ 138 µM).
`Cc1n[nH]c(=O)n1/N=C/c1ccncc1`: the MIC result in assay [1], in assay [2], in assay [4], in assay [5], in [6] and in [8] was “inactive” each time. Besides, the MIC entry in assay [10] is “inactive”. Besides, the MIC was 125 µg/mL (≈ 615 µM) in [3], 125 µg/mL (≈ 615 µM) in [7] and 500 µg/mL (≈ 2460 µM) in assay [9].
Turning to `Cc1nn(CNC2C(=O)N3C2SC(C)(C)C3C(=O)O)c(=O)n1CCCn1ccnc1` (stereo not given), the MIC in [1] is 125 µg/mL (≈ 287 µM); in assay [2] it was 125 µg/mL (≈ 287 µM); in assay [4], 62.5 µg/mL (≈ 144 µM); in [7], 31.3 µg/mL (≈ 71.9 µM); in assay [10], 125 µg/mL (≈ 287 µM). Further, the MIC result in [3], in [5], in assay [6], in assay [8] and in assay [9] was “inactive” each time.
In the case of `COc1ccc(/C=N/NC(=O)Cn2nc(C)n(/N=C/c3ccncc3)c2=O)cc1O`, the MIC entry in assay [1], in assay [2], in assay [4], in assay [5], in assay [6] and in assay [7] was “inactive” throughout. Further, the MIC result in assay [8], in [9] and in assay [10] was “inactive” in each case. The MIC in assay [3] was found to be 125 µg/mL (≈ 305 µM).
As to `Cc1nn(CC(=O)NNC(=S)Nc2ccccc2)c(=O)n1CCCn1ccnc1`, the MIC result in [1], in assay [2], in assay [4], in assay [5], in assay [6] and in [8] was “inactive” throughout. In assay [10], the MIC result was “inactive”. Further, the MIC in [3] came out at 250 µg/mL (≈ 603 µM); in assay [7], 31.3 µg/mL (≈ 75.5 µM); in [9], 62.5 µg/mL (≈ 151 µM).
In the case of `Cc1nn(CC(=O)N/N=C/c2ccccc2O)c(=O)n1/N=C/c1ccncc1`, the MIC entry in assay [1], in assay [2], in assay [4], in assay [5], in assay [6] and in assay [7] was “inactive” each time. For the same molecule, the MIC entry in assay [8], in [9] and in assay [10] was “inactive” throughout. Besides, the MIC in assay [3] stood at 250 µg/mL (≈ 659 µM).
Take `Cc1nn(-c2ccc(/N=C3\SCC(=O)N3Cc3ccccc3)cc2F)c(=O)n1CCCn1ccnc1`: the MIC entry in assay [1], in assay [2], in [4], in [5], in assay [6] and in assay [8] was “inactive” in each case. Also, the MIC result in assay [10] was “inactive”. The MIC came out at 500 µg/mL (≈ 989 µM) in assay [3], 125 µg/mL (≈ 247 µM) in [7] and 500 µg/mL (≈ 989 µM) in assay [9].
Regarding `COc1ccc(/C=N/NC(=O)Cn2nc(C)n(/N=C/c3ccncc3)c2=O)cc1`, the MIC entry in [1], in assay [2], in assay [4], in assay [5], in [6] and in assay [7] was “inactive” each time. Further, the MIC entry in assay [8], in assay [9] and in assay [10] was “inactive” throughout. Besides, the MIC in assay [3] worked out at 250 µg/mL (≈ 635 µM).
Take `Cc1nn(CN2CCOCC2)c(=O)n1CCCn1ccnc1`: the minimum inhibitory concentration (MIC) in assay [1] stood at 0.24 µg/mL (≈ 0.783 µM); in assay [2], 0.48 µg/mL (≈ 1.57 µM); in [3], 31.2 µg/mL (≈ 102 µM); in assay [4], 0.48 µg/mL (≈ 1.57 µM); in assay [5], 0.24 µg/mL (≈ 0.783 µM); in assay [6] it was 0.97 µg/mL (≈ 3.17 µM). The MIC amounted to 15.6 µg/mL (≈ 50.9 µM) in assay [7], 0.97 µg/mL (≈ 3.17 µM) in [8], 7.81 µg/mL (≈ 25.5 µM) in [9] and 0.48 µg/mL (≈ 1.57 µM) in [10].
For the molecule `Cc1nn(Cc2nnc(S)n2-c2ccccc2)c(=O)n1/N=C/c1ccncc1`, the MIC result in assay [1], in [2], in assay [4], in assay [5], in assay [6] and in assay [7] was “inactive” throughout. Besides, the MIC result in [8], in assay [9] and in [10] was “inactive” in each case. For the same molecule, the MIC in assay [3] came to 250 µg/mL (≈ 637 µM).
